From patent EP0409527A2, “Cis-diamineplatinum complexes with methanediphosphonate and substituted methanediphosphonate ligands as antitumor agents” (ENGELHARD CORPORATION, priority 1989, dated 1991)
Where “and” joins values, the source holds several entries; their conditions need not be identical. Equal entries are not always repeated.

Legend:
L1210 leukemia = assay: L1210 screening (L1210 leukemia tumor model, survival); type: in vivo, Female CDF, mice; conditions: for %ILS: 25% ILS or greater indicates activity, maximum 200%
Procedure: (§1) The platinum-diphosphonate complexes were tested for antitumor activity using both Sarcoma 180 ascites and L1210 leukemia tumor models (see Tables 3 and 4).
Female CDF, mice (16-22g) were injected with a suspension of 1x10^6 tumor cells in 0.5 mL of […] on day zero. On day one, the mice received the test compound in 0.5 mL of the chosen medium (usually water). Six mice were used for each test dose and six doses were normally given. Normal controls (six mice) received tumor on day zero and 0.5 mL of test medium on day one. Positive controls (six mice) were given tumor on day zero and 8 mg/kg cisplatin in 0.5 mL of […] on say one. All compound doses were adjusted for the actual average weight of the mice involved. Testing was terminated at 3 time the normal control mean life span. The percent increase in lifespan (%ILS) was calculated as follows: %ILS = [(mean life span (test)/mean life span (control))-1] X 100% A 25% ILS or greater indicates activity in this screen. The maximum possible ILS is 200%. The positive control must have an ILS > 25% for the test to be considered valid.

Sarcoma 180 ascites = assay: S180a screening (Sarcoma 180 ascites tumor model, survival); type: in vivo, Female CFW mice; conditions: for %ILS: ILS > 50% indicates activity
Procedure: as §1
Female CFW mice (18-25g) were implanted with 2 x 10^6 cells ip on day zero. Compounds were administered in 0.5 mL water ip on say one. Groups of 6 mice were used for each test dose as well as controls as defined above. The test was run for twice the MST of the control group, with survivors counted as dying on that day. An ILS of > 50% indicates activity. The tumor line was maintained through weekly transfer of 4 x 10^6 cells in CFW mice.

[1] = system: L1210 murine tumor system; conditions: Nepras, Masters Thesis 1979; cited from earlier work
[2] = L1210, dose 10.00 mg/kg day one
[3] = L1210, dose 20.00 mg/kg day one
[4] = L1210, dose 40.00 mg/kg day one
[5] = L1210, dose 80.00 mg/kg day one
[6] = L1210, dose 160.00 mg/kg day one
[7] = L1210, dose 320.00 mg/kg day one
[8] = L1210, survivors/mice, dose 10.00 mg/kg
[9] = L1210, survivors/mice, dose 20.00 mg/kg
[10] = L1210, survivors/mice, dose 40.00 mg/kg
[11] = L1210, survivors/mice, dose 80.00 mg/kg
[12] = L1210, survivors/mice, dose 160.00 mg/kg
[13] = L1210, survivors/mice, dose 320.00 mg/kg
[14] = survivors/mice, dose 10.00 mg/kg ip
[15] = survivors/mice, dose 20.00 mg/kg ip
[16] = survivors/mice, dose 40.00 mg/kg ip
[17] = survivors/mice, dose 80.00 mg/kg ip
[18] = survivors/mice, dose 320.00 mg/kg ip
[19] = survivors/mice, dose 160.00 mg/kg ip

| Molecule | %ILS (L1210 leukemia; [2]) | %ILS (L1210 leukemia; [3]) | %ILS (L1210 leukemia; [4]) | %ILS (L1210 leukemia; [5]) | %ILS (L1210 leukemia; [6]) | %ILS (L1210 leukemia; [7]) | SURV (L1210 leukemia; [8]) | SURV (L1210 leukemia; [9]) | SURV (L1210 leukemia; [10]) | SURV (L1210 leukemia; [11]) | SURV (L1210 leukemia; [12]) | SURV (L1210 leukemia; [13]) | %ILS (Sarcoma 180 ascites; dose 10.00 mg/kg ip day one) | %ILS (Sarcoma 180 ascites; dose 320.00 mg/kg ip day one) | SURV (Sarcoma 180 ascites; [14]) | SURV (Sarcoma 180 ascites; [15]) | SURV (Sarcoma 180 ascites; [16]) | SURV (Sarcoma 180 ascites; [17]) | SURV (Sarcoma 180 ascites; [18]) | also measured |
| --- | --- | --- | --- | --- | --- | --- | --- | --- | --- | --- | --- | --- | --- | --- | --- | --- | --- | --- | --- | --- |
| CC(O)(P(=O)([O-])[O-])P(=O)([O-])[O-].NC1CCCCC1N.NC1CCCCC1N.[Pt+2].[Pt+2] [Example 4, [Pt2(R,R-dach)2(HEDP)]] | 8% | 3% | 24% | 28% | 40% | 72% | 0/ 6 | 0/ 6 | 0/ 6 | 0/ 6 | 0/ 6 | 0/ 6 | -7% | 75% | 0/ 6 | 0/ 6 | 0/ 6 | 0/ 6 | 4/ 6 | %ILS (Sarcoma 180 ascites; dose 20.00 mg/kg ip day one, 20 mg/kg): -10% and -4%; %ILS (Sarcoma 180 ascites; dose 160.00 mg/kg ip day one, 160 mg/kg): 95% and 77%; %ILS (Sarcoma 180 ascites; dose 256.00 mg/kg ip day one): 47%; SURV (Sarcoma 180 ascites; survivors/mice, dose 160.00 mg/kg ip, 160 mg/kg): 5/ 6 and 3/ 6; SURV (Sarcoma 180 ascites; survivors/mice, dose 256.00 mg/kg ip): 1/ 6 |
| CC(O)(P(=O)([O-])[O-])P(=O)([O-])[O-].NCCN.NCCN.[Pt+2].[Pt+2] [[Pt2(en)2(HEDP)]] | – | – | – | – | – | – | – | – | – | – | – | – | – | – | – | – | – | – | – | antitumor activity [1]: inactive |
| NCCN.NCCN.O=P([O-])([O-])CP(=O)([O-])[O-].[Pt+2].[Pt+2] [[Pt2(en)2(MDP)]] | – | – | – | – | – | – | – | – | – | – | – | – | – | – | – | – | – | – | – | antitumor activity [1]: inactive |
| N.N.[Cl][Pt][Cl] [cisplatin, reference compound] | – | – | – | – | – | – | – | – | – | – | – | – | – | – | – | – | – | – | – | POS CONT SURV (L1210 leukemia; L1210, survivors/mice, positive control of the respective experiment, 8 mg/kg cisplatin, 8 mg/kg): 3/ 6 and 4/ 6 and 0/ 6 and 1/ 6; POS CONT %ILS (Sarcoma 180 ascites; positive control of the respective experiment, 8 mg/kg cisplatin in saline, 8 mg/kg): 58% and 92% and 82% and 63%; POS CONT SURV (Sarcoma 180 ascites; survivors/mice, positive control of the respective experiment, 8 mg/kg cisplatin, 8 mg/kg): 2/ 5 and 4/ 6 and 3/ 6 and 1/ 6 |
| Na[Pt2(R,R-dach)2(PDP)] [Example 3] | 1% | 28% | 28% | 55% | 104% | 111% | 0/ 6 | 0/ 6 | 0/ 6 | 0/ 6 | 2/ 6 | 2/ 6 | – | – | – | – | – | – | – | – |
| Na[Pt2(en)2(PDP)] [Example 2] | 0% | -3% | 0% | 20% | 23% | 11% | 0/ 6 | 0/ 6 | 0/ 6 | 0/ 6 | 0/ 6 | 0/ 6 | -4% | 49% | 0/ 6 | 0/ 6 | 0/ 6 | 1/ 6 | 1/ 6 | %ILS (Sarcoma 180 ascites; dose 20.00 mg/kg ip day one): 5%; %ILS (Sarcoma 180 ascites; dose 40.00 mg/kg ip day one): 6%; %ILS (Sarcoma 180 ascites; dose 80.00 mg/kg ip day one): 27%; %ILS (Sarcoma 180 ascites; dose 160.00 mg/kg ip day one): 48%; SURV (Sarcoma 180 ascites; [19]): 1/ 6 |
| [Pt2(en)2(PDP-D-glucosamine)] [Example 5] | -8% | -15% | 10% | 4% | 13% | 16% | – | 0/ 6 | 0/ 6 | 0/ 6 | 0/ 6 | 0/ 6 | 0% | 28% | 0/ 6 | 0/ 6 | 0/ 6 | 0/ 6 | 0/ 5 | %ILS (Sarcoma 180 ascites; dose 20.00 mg/kg ip day one): -3%; %ILS (Sarcoma 180 ascites; dose 40.00 mg/kg ip day one): -5%; %ILS (Sarcoma 180 ascites; dose 80.00 mg/kg ip day one): 0%; %ILS (Sarcoma 180 ascites; dose 160.00 mg/kg ip day one): 0%; SURV (Sarcoma 180 ascites; [19]): 0/ 6 |
| [Pt2(en)2(PDP-hydrazide)] [Example 7] | -14% | 21% | -18% | -14% | 20% | 0% | 0/ 6 | 0/ 6 | 0/ 6 | 0/ 6 | 0/ 6 | 0/ 6 | – | – | – | – | – | – | – | – |
